In patent US7371775B2, “7-carboxymethyloxy-3′,4′,5-trimethoxy flavone monohydrate, the preparation method and uses thereof” (Dong-A Pharmaceuticals Co., Ltd, priority 2003, dated 2008):
Like-named read-outs stand apart in the source and are kept apart here.

Tests used:
[1] = test system: TNBS-induced colitis model; assay: Model of inflammatory bowel diseases induced with TNBS (lesion score); format: in vivo, male SD rats
Experimental: The modified method of Shibata et al. (Dig. Endosc. 1993, 5: 13) was used. 7 week-old male SD rats (CRJ) were fasted for a day, and the rats were put under anesthesia and canula (diameter 3 mm) was inserted into the anus to the depth of 8 cm. 25 mg/ml of TNBS (Trinitrobenzene sulfonic acid) dissolved in 50% ethanol solution was injected to each rat and the rats were positioned at feature of tail up for 1 minute. The solution flowing out was removed and the rats were once washed with 1.5 ml of saline solution. After colitis was induced, the compound of the present invention was administered orally or rectally from the next day of inducing to the 6th day. For control medicine, sulfasalazine […] was used for oral administration and prednisolone was used for rectal administration. And for control group, 5% HPMC was administered. On the 7th day of experiment, each group of the rats was put under ether anesthesia for autopsy. The colon was extracted. After 1% formalin solution was injected into the cavity of the extracted colon to inflate, the both ends of it were bonded with each other, which was then fixed in 1% formalin solution for 2 hours. The all-fixed colon was cut to lengthy direction and washed to remove surrounding fat tissues and connective fissaes. Cecum was removed and the weight of the colon and the rectum was measured. The area of ulcer lesion and inflammatory region were measured to mark scores according to the criterion. Then they were fixed in 10% neutral formalin solution, and the tissue examination of lesion site was performed by a general method to mark scores according to criterion.
Clinical symptoms: Daily, clinical symptoms and survival of the animals were observed. The weight of animals was measured at the beginning day, the 3rd day and the 8th day of the experiment.
Observation with naked eye: The number and the width of the ulcer and lesion area formed in the large intestine were measured and recorded. By using modified Wallace's method (Can. J. Physiol. Pharmacol., 1988, 66: 422), lesion examined with the naked eye was scored and the average value of each group was compared. The standard of lesion scores as criterion of the damage of the colon by Wallace's method […] is as follows.
(0: normal, non-damaged, 1: congestion without ulcer, 2: congestion and thickening of intestinal wall without ulcer, 3: an ulcer lesion without thickening of intestinal wall, 4: more than two ulcerous/inflammatory lesion, 5: more than two ulcerous/inflammatory lesion or the length of ulcerous/inflammatory lesion is more than 1 cm, 6-10: when the length of lesion is over 2 cm, one point increases every time 1 cm of the length of ulcerous/inflammatory increases, for example: when the ulcer length is 3 cm, the point is 7)
Pathological tissue examination: The colon was trimmed at 3 cm interval from the rectum to the cecum, including the site of lesion examined with the naked eye, to make at least 4 specimens per an individual. Pathological tissue examination on the specimens was performed and the results were scored by modified method of Moyama (Ann. Clin. Lab. Sci., 1990, 20: 420). And the highest score was regarded as the score of an individual. When the lesion cannot be examined with the naked eye, the other specimen having lesion was trimmed, at 3 cm interval, from another individual.

[2] = Test of conversion of ethanol solvate into monohydrate: weight changes at 25° C., 75% relative humidity; format: physicochemical
Experimental: 7-carboxymethyloxy-3′,4′,5-trimethoxy flavone.monohydrate prepared in the above example 1 or example 2 was measured by using a weighing bottle (6 cm in diameter). 1 g of the 7-carboxymethyloxy-3′,4′,5-trimethoxy flavone.monohydrate was prepared as a sample. The sample was kept in a receptacle in which temperature was set at 25° C. and 75% relative humidity. On the let, 1st, 2nd, 3rd and 6th day, the weight of samples were measured.
Weight changes of 7-carboxymethyloxy-3′,4′,5-trimethoxy flavone.ethanol solvate prepared in the above example 3 were also investigated by the same method as mentioned above, and the results are shown in Table 2.

[3] = Hygroscopicity test: weight changes at 25° C., 75% relative humidity; format: physicochemical
Experimental: 7-carboxymethyloxy-3′,4′,5-trimethoxy flavone.monohydrate prepared in the above example 1 or example 2 was exactly measured by using a weighing bottle (6 cm in diameter). 1 g of the 7-carboxymethyloxy-3′,4′,5-trimethoxy flavone.monohydrate was prepared as a sample. The sample was kept in a vessel in which temperature was set; at 25° C. and 75% relative humidity was maintained. Weight changes of the sample were measured after 2, 4, and 6 hours and on the first day, on the 3rd day, and on the 6th day. The amount of weight change was calculated as percentage to the starting weight of the sample and the results are shown in Table 1.
Weight changes of 7-carboxymethyloxy-3′,4′,5-trimethoxy flavone.anhydride prepared in the comparative example were also measured by the same method as mentioned above, and the results are shown in Table 1.

[4] = test system: gastric mucosal damage induced by ethanolic-HCl; assay: Gastric mucosal damaged model induced by ethanolic-HCl (ulcer index); format: in vivo, SD male rats; conditions: rats, oral; for ED50: Rattus norvegicus, 1 hour before 150 mM HCl-80% ethanol, ulcer index
Experimental: SD male rats (250-350 g) were fasted for 24 hours. The compound of the present invention was orally administered in suspension of 5% HPMC, and after 1 hour, 1.5 ml of 150 mM HCl-80% ethanol was orally administered. After 1 hour, the rats were sacrificed and the stomachs were extracted to measure ulcer index. The ulcer index was shown by the area (mm^2) of hemorrhage lesion (Mizui, T, et al., Jpn. J. Pharmacol. 1983, 33: 939).
Rebamipide [2-(4-chlorobenzoylamino)-3-(2-(1H)-quinolinone-4-yl)propanonic acid] (Trade Name: Mucosta) was used as a control medicine.

[5] = listed as 7-carboxymethyloxy-3′,4′,5-trimethoxy flavone.monohydrate

Structure (SMILES) | Weight changes according to the time lapse (%) ([2]; 0 day) | Weight changes according to the time lapse (%) ([2]; 1 day) | Weight changes according to the time lapse (%) ([2]; 2 day) | Weight changes according to the time lapse (%) ([2]; 3 day) | Weight changes according to the time lapse (%) ([2]; 6 day) | Weight changes according to the time lapse (%) ([3]; 0 h) | Weight changes according to the time lapse (%) ([3]; 2 h) | Weight changes according to the time lapse (%) ([3]; 4 h) | Weight changes according to the time lapse (%) ([3]; 6 h) | Weight changes according to the time lapse (%) ([3]; 1 day) | Weight changes according to the time lapse (%) ([3]; 3 day) | Weight changes according to the time lapse (%) ([3]; 6 day) | ED50 [4] | also measured
C[C@]12C=CC(=O)C=C1CC[C@@H]1[C@@H]2[C@@H](O)C[C@@]2(C)[C@H]1CC[C@]2(O)C(=O)CO [Prednisolone, reference compound] |  |  |  |  |  |  |  |  |  |  |  |  |  | Lesion score ([1]; rectally administered, 1 mg/kg, control 5% HPMC 5.3): 4.8
COc1ccc(-c2cc(=O)c3c(OC)cc(OCC(=O)O)cc3o2)cc1OC [Ethanol solvate, 7-carboxymethyloxy-3′,4′,5-trimethoxy flavone.ethanol solvate] | 0% | −4.1% | −6.5% | −6.5% | −6.5% |  |  |  |  |  |  |  |  | weight change / conversion (in words) [2]: converted into monohydrate; weight decrease (average) ([2]; after one day): 4.1%; weight decrease (average) ([2]; after two days, constant thereafter): 6.5%
O=C(O)c1cc(/N=N/c2ccc(S(=O)(=O)Nc3ccccn3)cc2)ccc1O [Sulfasalazine, reference compound] |  |  |  |  |  |  |  |  |  |  |  |  |  | Lesion score ([1]; orally administered, 100 mg/kg p.o, control 5% HPMC 9.0): 7.7
COc1ccc(-c2cc(=O)c3c(OC)cc(OCC(=O)O)cc3o2)cc1OC [Anhydride, reference compound] |  |  |  |  |  | 0% | +3.4% | +4.7% | +4.7% | +4.6% | +4.5% | +4.6% |  | Weight changes according to the time lapse (%) ([3]; 2 h, listed as 7-carboxymethyloxy-3′,4′,5-trimethoxy flavone.anhydride): 3.4%; weight increase (average) ([3]; from the 4th hour): 4.6%
O=C(NC(Cc1cc(=O)[nH]c2ccccc12)C(=O)O)c1ccc(Cl)cc1 (centres unmarked) [Rebamipide, 2-(4-chlorobenzoylamino)-3-(2-(1H)-quinolinone-4-yl)propanonic acid, reference compound] |  |  |  |  |  |  |  |  |  |  |  |  | 44.2 mg/kg | 
COc1ccc(-c2cc(=O)c3c(OC)cc(OCC(=O)O)cc3o2)cc1OC [Monohydrate, 7-carboxymethyloxy-3′,4′,5-trimethoxy flavone.monohydrate] | 0% | −0.3% | +0.3% | +0.3% | +0.3% | 0% | −0.2% | −0.3% | +0.2% | −0.3% | +0.3% | +0.3% | 0.33 mg/kg | protecting effect on the damage of gastric mucosa relative to Rebamipide ([4]; ratio of ED50): at least 100 times; effect on the TNBS-induced inflammatory colitis model (in words) ([1]; oral and rectal administration): showed inhibiting effect; Lesion score ([1]; orally administered, 0.3 mg/kg p.o, control 5% HPMC 9.0): 7.5; Lesion score ([1]; orally administered, 3 mg/kg p.o, control 5% HPMC 9.0): 5.9; Lesion score ([1]; rectally administered, 0.3 mg/kg, control 5% HPMC 5.3): 2.0; weight change / hygroscopicity (in words) [3, 5]: did not show any weight change; weight change / hygroscopicity (in words) ([3]; listed as monohydrate): no weight change; weight change / conversion (in words) [2, 5]: did not show any weight change
